This is an account of results in patent US20240425514A1, “ALSTONINE DERIVATIVES AND SALTS THEREOF” (priority 2021, published 2024).

Experiment [1] has as its system zebrafish. As to the kind of experiment: Open tank test in zebrafish, MK-801 model. It counts as in vivo, Danio rerio. To be noted: for overall effect on the analyzed parameters of the open tank test: drug pretreatment. How it is done:
(§1) Here, the ability of alstonine salts to reverse schizophrenia-like symptoms produced by MK-801 in zebrafish was evaluated. The atypical antipsychotic olanzapine was used as a comparison.
(§2) Experiments were performed using male and female (50:50 ratio) short-fin wild-type zebrafish (4-month-old, 300-500 mg). Adult animals were obtained from a local commercial supplier (Delphis, R S, Brazil). The animals were maintained at Instituto de Ciências Básicas da Saúde in a light/dark cycle of 14/10 h with lights on at 7:00 a.m for at least two weeks before tests. Fish were kept in 40-L (30×46×33 cm) unenriched glass tanks with non-chlorinated water at a maximum density of five animals per liter. Tank water satisfied the controlled conditions required for zebrafish (26±2° C.; pH 7.0±0.3; dissolved oxygen at 7.0±0.4 mg/L; total ammonia at <0.01 mg/L; total hardness at 5.8 mg/L; alkalinity at 22 mg/L CaCO3; conductivity of 1,500-1,600 μS/cm) and was constantly filtered by mechanical, biological, and chemical filtration systems. Food was provided twice a day as commercial flake food (Poytara®, SP, Brazil) plus brine shrimp (Artemia salina). The sex of the animals was confirmed after euthanasia by dissecting and analyzing the gonads. For all experiments, no sex effects were observed, so data were pooled together. Animals were euthanized by hypothermic shock according to the AVMA Guidelines for the Euthanasia of Animals (Leary and Johnson, 2020).
(§3) MK-801 (dizocilpine) and sulpiride were purchased from Sigma-Aldrich (St. Louis, MO, USA); olanzapine was purchased from Selleck Chemicals. Alstonine hydrochloride, alstonine benzoate, and alstonine benzensulfonate were prepared as described herein. MK-801, olanzapine, and alstonine hydrochloride were dissolved in distilled water, with sonication in an ultrasonic bath for the latter. Sulpiride, alstonine benzoate, and alstonine benzensulfonate were dissolved in 100% DMSO; stock solutions were diluted to achieve a final DMSO concentration of 1% for the highest concentration. MK-801 solutions were freshly prepared, while alstonine stock solutions were kept refrigerated for up to five days. Exposure solutions were renovated halfway through the experiment, with a maximum of four fish exposed to the same solution.
(§4) Different sets of animals were used for each experiment, totaling 600 zebrafish in the study (plus 200 zebrafish serving as stimulus animals). Animals were individually exposed to water or alstonine solutions at 2.5, 5 or 10 mg/L in 500-mL beakers containing 200-mL solution for 20 min (n=15). These concentrations were extrapolated from mice studies. Fish were then transferred to another beaker containing either water or MK-801 at 5 μM and remained there for another 20 minutes.
(§5) The animals were allocated to the experimental groups following block randomization procedures to counterbalance for home tank, sex, and day of testing. The order for outcome assessment was also randomized and care was taken to counterbalance the test apparatuses across the experimental groups. Outcome assessors were blind to the experimental groups, as well as the experimenters responsible for taking the animal and placing it in the test apparatus.
The protocol for the open tank test followed the method described by Benvenutti et al. (2021). Immediately after the social preference test, animals were placed in the center of the open tank arena and recorded for 10 min. The apparatus consisted of a white circular arena (24 cm in diameter and 8 cm in height, 2 cm water level). The apparatus format and the acquisition of videos from the top view allows the evaluation of locomotor parameters related to stereotypic behavior (circular movements and absolute turn angle). The water was changed between every animal. The following outcomes were automatically scored using ANY-Maze software (Stoelting Co., Wood Dale, IL, USA): total distance traveled, absolute turn angle, number of clockwise rotations, and immobility time. […]

The test system of experiment [2] is zebrafish. The experiment is described as follows: Social preference test in zebrafish, MK-801 model. It counts as in vivo, Danio rerio. As to conditions: for overall effect on all parameters of the social preference test: drug pretreatment, then water or MK-801 5 μM. How it is done:
as §1, §2, §3, §4, §5
The protocol for the social preference test in zebrafish followed the method described by Benvenutti et al. (2021). After exposure, animals were placed for 7 min in a tank (30×10×15 cm) flanked by two identical tanks (15×10×13 cm) either empty (neutral stimulus) or containing 10 unknown zebrafish (social stimulus). All three tanks were filled with water in standard conditions at a level of 10 cm. The position of the social stimulus (right or left) was counterbalanced throughout the tests. The water in the test tanks was changed between every animal. To assess social behavior, the test apparatus was virtually divided into three vertical zones (interaction, middle, and neutral). Animals were habituated to the apparatus for 2 min and then analyzed for the last 5 min. […]

A further experiment deals with D2, and 5-HT2A receptors. As to conditions: cortex membranes; preliminary binding studies; cited from earlier work.
For another experiment, the system named is dopamine (DA) uptake. To be noted: mouse striatal synaptosomes; cited from earlier work.
The subject of another experiment is mice. As to conditions: 0.5-1.0 mg/kg ip; cited from earlier work.
The target in a further experiment is T1, D1 (Homo sapiens, UniProt P21728).
T1 construct: host or cells: cortex membranes (tissue)
T1 sequence (P21728 whole entry): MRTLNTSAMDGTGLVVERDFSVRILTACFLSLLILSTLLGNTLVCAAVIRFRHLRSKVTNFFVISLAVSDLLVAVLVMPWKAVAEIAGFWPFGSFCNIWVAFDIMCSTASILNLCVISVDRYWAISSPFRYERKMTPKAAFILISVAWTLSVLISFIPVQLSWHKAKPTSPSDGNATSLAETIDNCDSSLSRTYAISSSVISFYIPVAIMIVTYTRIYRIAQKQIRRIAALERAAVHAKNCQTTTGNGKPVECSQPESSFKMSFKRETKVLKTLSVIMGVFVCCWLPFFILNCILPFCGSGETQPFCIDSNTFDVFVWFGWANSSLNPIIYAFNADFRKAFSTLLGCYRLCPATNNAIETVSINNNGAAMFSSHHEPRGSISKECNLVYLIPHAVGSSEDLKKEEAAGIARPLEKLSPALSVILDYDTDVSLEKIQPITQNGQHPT
As to conditions: cortex membranes; preliminary binding studies; cited from earlier work.

Where [3] appears, read: MK-801 5 μM vs control, experiment with olanzapine.
Where [4] appears, read: MK-801 5 μM vs controls, experiment with sulpiride.

Each structure is given as a SMILES string. “Also recorded” adds a separate entry of the source. Counter-ions that a name gives are not always drawn.

`CCN1CCCC1CNC(=O)c1cc(S(N)(=O)=O)ccc1OC` (stereo not shown) [Sulpiride, sulpiride]: the “overall effect on the analyzed parameters of the open tank test” value with zebrafish [1] (then water or MK-801 5 μM) is “no significant effects on any of the analyzed parameters”. In addition, the “overall effect on all parameters of the social preference test” value (“overall effect on all parameters” below) with zebrafish [2] is given as “devoid of effects on all parameters”.
For `COC(=O)C1=CO[C@@H](C)[C@@H]2Cn3ccc4c5ccccc5nc-4c3C[C@H]12` [alstonine], the “effect on [3H]Spiperone binding” value in the experiment on D2, and 5-HT2A receptors is listed as “does not affect”. In addition, in the experiment with dopamine (DA) uptake, the DA uptake entry is listed as “increasing DA uptake”. Besides, in the experiment on mice, the “antipsychotic properties in mice models” value is reported as “shows antipsychotic properties”. For the same molecule, the “effect on [3H]SCH23390 binding” value at D1 was “does not affect”.
Take `COC(=O)C1=COC(C)C2C[n+]3ccc4c([nH]c5ccccc54)c3CC12.O=S(=O)([O-])c1ccccc1` (stereo not shown) [alstonine benzensulfonate, Alstonine benzenesulfonate]: the immobility time entry in the experiment on zebrafish [1] (drug pretreatment 20 min, then water or MK-801 5 μM, interaction with MK-801, post hoc) was “the intermediate and highest concentrations prevented the increase in immobility time induced by MK-801; also recorded: subgroup of animals that respond to alstonine benzensulfonate regarding immobility time to the level of controls”. For the same molecule, the distance traveled entry in the experiment with zebrafish [1] (drug pretreatment 20 min, then water or MK-801 5 μM, main effect of drug) is reported as “trend for a main effect on total distance”. For the same molecule, the clockwise rotations entry with zebrafish [1] (drug pretreatment 20 min, then water or MK-801 5 μM, main effect or interaction with MK-801) is listed as “significant interaction; also recorded: preventing (at the highest concentrations) the effects of MK-801 on clockwise rotations”. Besides, in the experiment on zebrafish [1] (then water or MK-801 5 μM), the “overall effect on the analyzed parameters of the open tank test” value is “possess antipsychotic-like properties similar to olanzapine”. Besides, the “overall effect on all parameters” value in the experiment on zebrafish [2] is reported as “devoid of statistically significant effects”.
With `COC(=O)C1=COC(C)C2C[n+]3ccc4c([nH]c5ccccc54)c3CC12.O=C([O-])c1ccccc1` (stereo not shown) [alstonine benzoate, Alstonine benzoate], the “overall effect on all parameters” value in the experiment on zebrafish [2] is recorded as “devoid of statistically significant effects”. Moreover, the immobility time entry with zebrafish [2] (interaction between drug pretreatment and MK-801 5 μM) is listed as “trend for alstonine benzoate to prevent the effects of MK-801 on immobility time in the highest concentration tested”.
As for `C[C@]12N[C@H](Cc3ccccc31)c1ccccc12` [MK-801, dizocilpine], in the experiment on zebrafish [1] (main effect of MK-801 5 μM), the absolute turn angle entry is listed as “decreased”, the clockwise rotations result is “decreased”, the distance traveled result is on record as “decreased the distance traveled” and the immobility time result is given as “increased the immobility time”. For the same molecule, in the experiment on zebrafish [2] (setting [3]), the number of crossings entry is listed as “increased”, the “time in the social interaction zone” value is listed as “spent less time in the social interaction zone” and the total distance traveled result is given as “increased the total distance traveled”. In addition, in the experiment on zebrafish [2] (setting [4]), the immobility time result is “increased” and the number of crossings result is “increased the number of crossings”.
In the case of `COC(=O)C1=CO[C@@H](C)[C@@H]2Cn3ccc4c5ccccc5nc-4c3C[C@H]12` [Alstonine hydrochloride], the “overall effect on all parameters” value in the experiment with zebrafish [2] was “potentiated the effects of MK-801 in the social preference test”. The “time in the zone of interaction” value in the experiment on zebrafish [2] (fish exposed 20 min to drug, then 20 min to water or MK-801 5 μM, main effect of drug pretreatment, two-way ANOVA) was “nonspecifically reduced the time in the zone of interaction at the intermediate and highest concentrations”. Moreover, the number of crossings result with zebrafish [2] (interaction between drug pretreatment and MK-801 5 μM, Bonferroni post hoc) is given as “potentiated the effect of MK-801 at the intermediate concentration”.
